According to ChEMBL document CHEMBL5678818, “Discovery of potent SOS1 inhibitors that block RAS activation via disruption of the RAS-SOS1 interaction” (Proc Natl Acad Sci U S A, 2019):

Key:
[1] = target: T1, Inhibitor of nuclear factor kappa-B kinase subunit beta (Homo sapiens) (UniProt O14920); experiment: Inhibition of IKK-beta (unknown origin) assessed as residual activity at 1000 nM by KINOMEscan analysis relative to control
T1 sequence (whole entry): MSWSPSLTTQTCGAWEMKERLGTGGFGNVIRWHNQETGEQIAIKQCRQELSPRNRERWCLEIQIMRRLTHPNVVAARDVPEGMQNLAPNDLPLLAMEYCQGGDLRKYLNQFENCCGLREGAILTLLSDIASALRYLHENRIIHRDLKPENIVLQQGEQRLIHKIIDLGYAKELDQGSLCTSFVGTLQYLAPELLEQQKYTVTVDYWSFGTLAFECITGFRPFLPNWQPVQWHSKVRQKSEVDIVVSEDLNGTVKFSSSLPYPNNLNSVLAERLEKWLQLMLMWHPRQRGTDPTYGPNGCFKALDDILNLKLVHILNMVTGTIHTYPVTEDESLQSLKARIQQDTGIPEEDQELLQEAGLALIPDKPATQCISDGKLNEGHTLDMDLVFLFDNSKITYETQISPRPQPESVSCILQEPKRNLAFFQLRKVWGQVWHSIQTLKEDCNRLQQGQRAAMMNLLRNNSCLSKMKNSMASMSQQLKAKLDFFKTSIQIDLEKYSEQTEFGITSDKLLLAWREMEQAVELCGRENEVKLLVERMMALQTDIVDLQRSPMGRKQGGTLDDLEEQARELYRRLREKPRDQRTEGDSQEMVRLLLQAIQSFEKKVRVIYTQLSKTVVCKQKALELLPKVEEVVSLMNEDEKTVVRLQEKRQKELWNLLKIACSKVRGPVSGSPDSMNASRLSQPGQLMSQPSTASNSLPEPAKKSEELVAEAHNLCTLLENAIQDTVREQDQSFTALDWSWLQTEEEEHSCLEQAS

[2] = target: Proto-oncogene tyrosine-protein kinase receptor Ret (Homo sapiens) (UniProt P07949); experiment: Inhibition of RET (unknown origin) assessed as residual activity at 1000 nM by KINOMEscan analysis relative to control
Proto-oncogene tyrosine-protein kinase receptor Ret (Homo sapiens), sequence (P07949 whole entry): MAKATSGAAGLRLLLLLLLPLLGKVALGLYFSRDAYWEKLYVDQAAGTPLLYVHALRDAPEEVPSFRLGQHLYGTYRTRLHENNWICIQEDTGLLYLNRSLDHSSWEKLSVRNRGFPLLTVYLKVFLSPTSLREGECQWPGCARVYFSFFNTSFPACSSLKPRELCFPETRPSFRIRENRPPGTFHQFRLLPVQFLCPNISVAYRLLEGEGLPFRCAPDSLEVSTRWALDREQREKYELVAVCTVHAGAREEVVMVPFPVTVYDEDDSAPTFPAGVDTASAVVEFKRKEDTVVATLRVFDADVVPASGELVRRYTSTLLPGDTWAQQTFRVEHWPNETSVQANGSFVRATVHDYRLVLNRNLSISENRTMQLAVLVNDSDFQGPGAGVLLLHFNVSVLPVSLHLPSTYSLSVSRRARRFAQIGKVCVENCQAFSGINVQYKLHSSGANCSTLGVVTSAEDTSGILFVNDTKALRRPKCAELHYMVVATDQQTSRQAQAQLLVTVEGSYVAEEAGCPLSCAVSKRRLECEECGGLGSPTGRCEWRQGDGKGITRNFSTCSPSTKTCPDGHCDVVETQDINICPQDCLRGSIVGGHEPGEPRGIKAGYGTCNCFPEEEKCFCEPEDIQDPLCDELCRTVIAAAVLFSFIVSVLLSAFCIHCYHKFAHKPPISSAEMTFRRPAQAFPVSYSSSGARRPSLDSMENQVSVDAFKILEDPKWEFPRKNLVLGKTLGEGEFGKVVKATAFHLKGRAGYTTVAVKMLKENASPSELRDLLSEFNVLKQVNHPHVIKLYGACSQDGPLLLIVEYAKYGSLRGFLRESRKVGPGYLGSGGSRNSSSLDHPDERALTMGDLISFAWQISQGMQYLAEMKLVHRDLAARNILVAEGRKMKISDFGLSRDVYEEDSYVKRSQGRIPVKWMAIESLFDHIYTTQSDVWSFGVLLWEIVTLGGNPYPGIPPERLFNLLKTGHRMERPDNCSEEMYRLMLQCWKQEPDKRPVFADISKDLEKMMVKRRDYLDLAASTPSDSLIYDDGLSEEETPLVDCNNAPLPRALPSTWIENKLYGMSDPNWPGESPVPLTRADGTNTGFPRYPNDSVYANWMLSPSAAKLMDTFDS

[3] = target: Serine/threonine-protein kinase SIK3 (Homo sapiens) (UniProt Q9Y2K2); experiment: Inhibition of QSK (unknown origin) assessed as residual activity at 1000 nM by KINOMEscan analysis relative to control
Serine/threonine-protein kinase SIK3 (Homo sapiens), sequence (Q9Y2K2 whole entry, looked up): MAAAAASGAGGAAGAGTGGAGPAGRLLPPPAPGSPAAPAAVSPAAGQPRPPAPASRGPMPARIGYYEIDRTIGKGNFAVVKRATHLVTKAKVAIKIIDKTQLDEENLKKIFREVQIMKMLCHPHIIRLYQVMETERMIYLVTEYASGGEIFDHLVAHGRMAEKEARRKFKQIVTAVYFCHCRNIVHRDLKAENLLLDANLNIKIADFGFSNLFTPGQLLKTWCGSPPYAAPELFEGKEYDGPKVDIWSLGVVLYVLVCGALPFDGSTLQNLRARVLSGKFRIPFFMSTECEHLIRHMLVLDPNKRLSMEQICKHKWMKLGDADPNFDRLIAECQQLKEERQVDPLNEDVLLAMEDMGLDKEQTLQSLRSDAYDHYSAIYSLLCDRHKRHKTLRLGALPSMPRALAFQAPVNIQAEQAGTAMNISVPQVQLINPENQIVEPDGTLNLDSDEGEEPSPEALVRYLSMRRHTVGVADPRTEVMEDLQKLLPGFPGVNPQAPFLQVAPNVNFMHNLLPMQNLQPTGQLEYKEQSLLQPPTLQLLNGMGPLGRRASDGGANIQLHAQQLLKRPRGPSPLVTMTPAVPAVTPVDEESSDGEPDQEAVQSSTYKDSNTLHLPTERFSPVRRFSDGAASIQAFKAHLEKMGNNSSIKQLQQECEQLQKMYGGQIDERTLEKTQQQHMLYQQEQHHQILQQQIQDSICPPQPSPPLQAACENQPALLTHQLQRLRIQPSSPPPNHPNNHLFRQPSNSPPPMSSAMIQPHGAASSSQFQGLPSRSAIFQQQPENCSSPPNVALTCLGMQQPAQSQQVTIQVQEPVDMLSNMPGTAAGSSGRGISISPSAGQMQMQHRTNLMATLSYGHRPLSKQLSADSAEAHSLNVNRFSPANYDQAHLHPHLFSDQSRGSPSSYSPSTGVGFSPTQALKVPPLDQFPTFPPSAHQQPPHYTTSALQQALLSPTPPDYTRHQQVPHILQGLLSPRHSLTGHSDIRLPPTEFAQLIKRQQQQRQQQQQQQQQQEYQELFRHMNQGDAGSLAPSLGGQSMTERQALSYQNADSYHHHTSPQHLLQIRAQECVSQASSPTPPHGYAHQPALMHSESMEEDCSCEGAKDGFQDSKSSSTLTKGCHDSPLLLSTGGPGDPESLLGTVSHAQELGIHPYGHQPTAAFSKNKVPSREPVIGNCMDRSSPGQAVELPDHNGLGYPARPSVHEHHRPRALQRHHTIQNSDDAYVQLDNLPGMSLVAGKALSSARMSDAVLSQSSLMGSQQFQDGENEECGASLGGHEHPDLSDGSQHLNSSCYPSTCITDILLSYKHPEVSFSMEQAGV

[4] = target: T2, Interleukin-1 receptor-associated kinase 3 (Homo sapiens) (UniProt Q9Y616); experiment: Inhibition of IRAK3 (unknown origin) assessed as residual activity at 1000 nM by KINOMEscan analysis relative to control
T2 sequence (whole entry): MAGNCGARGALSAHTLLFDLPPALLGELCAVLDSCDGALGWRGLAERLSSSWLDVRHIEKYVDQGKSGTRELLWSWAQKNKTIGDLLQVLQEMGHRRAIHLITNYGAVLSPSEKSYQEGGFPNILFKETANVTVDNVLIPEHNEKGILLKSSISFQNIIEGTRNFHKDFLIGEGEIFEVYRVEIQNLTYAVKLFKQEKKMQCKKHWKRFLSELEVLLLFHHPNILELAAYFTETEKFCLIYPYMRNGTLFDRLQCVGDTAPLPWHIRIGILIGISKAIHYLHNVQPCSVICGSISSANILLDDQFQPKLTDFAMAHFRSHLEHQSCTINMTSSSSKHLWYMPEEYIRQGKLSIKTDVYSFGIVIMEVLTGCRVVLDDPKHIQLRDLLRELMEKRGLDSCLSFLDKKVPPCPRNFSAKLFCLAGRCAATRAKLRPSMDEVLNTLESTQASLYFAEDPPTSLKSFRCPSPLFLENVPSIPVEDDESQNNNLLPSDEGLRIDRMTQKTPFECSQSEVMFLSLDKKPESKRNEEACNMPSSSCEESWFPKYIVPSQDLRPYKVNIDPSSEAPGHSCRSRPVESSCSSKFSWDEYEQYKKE

[5] = target: Phosphatidylinositol 4-phosphate 3-kinase C2 domain-containing subunit beta (Homo sapiens) (UniProt O00750); experiment: Inhibition of PIK3C2B (unknown origin) assessed as residual activity at 1000 nM by KINOMEscan analysis relative to control
[6] = target: Protein kinase C delta type (Homo sapiens) (UniProt Q05655); experiment: Inhibition of PRKCD (unknown origin) assessed as residual activity at 1000 nM by KINOMEscan analysis relative to control
Protein kinase C delta type (Homo sapiens), sequence (Q05655 whole entry, looked up): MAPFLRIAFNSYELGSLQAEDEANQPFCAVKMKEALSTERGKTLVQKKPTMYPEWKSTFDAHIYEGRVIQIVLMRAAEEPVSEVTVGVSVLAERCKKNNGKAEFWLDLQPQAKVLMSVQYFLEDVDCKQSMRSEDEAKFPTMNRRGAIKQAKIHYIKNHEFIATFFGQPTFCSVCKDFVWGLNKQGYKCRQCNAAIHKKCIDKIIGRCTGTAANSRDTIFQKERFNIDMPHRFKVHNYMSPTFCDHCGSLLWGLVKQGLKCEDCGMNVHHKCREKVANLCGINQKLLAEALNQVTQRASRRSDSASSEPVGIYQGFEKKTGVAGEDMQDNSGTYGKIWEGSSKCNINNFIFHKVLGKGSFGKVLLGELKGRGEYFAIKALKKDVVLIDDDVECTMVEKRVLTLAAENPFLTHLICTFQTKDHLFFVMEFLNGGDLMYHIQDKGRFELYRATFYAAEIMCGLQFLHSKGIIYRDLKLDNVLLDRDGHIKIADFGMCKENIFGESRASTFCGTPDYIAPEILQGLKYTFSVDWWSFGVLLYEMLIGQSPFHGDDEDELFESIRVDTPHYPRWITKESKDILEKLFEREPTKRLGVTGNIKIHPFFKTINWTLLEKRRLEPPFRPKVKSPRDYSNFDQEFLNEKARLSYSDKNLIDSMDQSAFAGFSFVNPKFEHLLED

[7] = test system: Mast/stem cell growth factor receptor Kit (Homo sapiens), P10721 [V559D,T670I]; experiment: Inhibition of KIT V559D/T670I mutant (unknown origin) assessed as residual activity at 1000 nM by KINOMEscan analysis relative to control
Mast/stem cell growth factor receptor Kit (Homo sapiens), P10721 [V559D,T670I], sequence (P10721 whole entry V559D/T670I): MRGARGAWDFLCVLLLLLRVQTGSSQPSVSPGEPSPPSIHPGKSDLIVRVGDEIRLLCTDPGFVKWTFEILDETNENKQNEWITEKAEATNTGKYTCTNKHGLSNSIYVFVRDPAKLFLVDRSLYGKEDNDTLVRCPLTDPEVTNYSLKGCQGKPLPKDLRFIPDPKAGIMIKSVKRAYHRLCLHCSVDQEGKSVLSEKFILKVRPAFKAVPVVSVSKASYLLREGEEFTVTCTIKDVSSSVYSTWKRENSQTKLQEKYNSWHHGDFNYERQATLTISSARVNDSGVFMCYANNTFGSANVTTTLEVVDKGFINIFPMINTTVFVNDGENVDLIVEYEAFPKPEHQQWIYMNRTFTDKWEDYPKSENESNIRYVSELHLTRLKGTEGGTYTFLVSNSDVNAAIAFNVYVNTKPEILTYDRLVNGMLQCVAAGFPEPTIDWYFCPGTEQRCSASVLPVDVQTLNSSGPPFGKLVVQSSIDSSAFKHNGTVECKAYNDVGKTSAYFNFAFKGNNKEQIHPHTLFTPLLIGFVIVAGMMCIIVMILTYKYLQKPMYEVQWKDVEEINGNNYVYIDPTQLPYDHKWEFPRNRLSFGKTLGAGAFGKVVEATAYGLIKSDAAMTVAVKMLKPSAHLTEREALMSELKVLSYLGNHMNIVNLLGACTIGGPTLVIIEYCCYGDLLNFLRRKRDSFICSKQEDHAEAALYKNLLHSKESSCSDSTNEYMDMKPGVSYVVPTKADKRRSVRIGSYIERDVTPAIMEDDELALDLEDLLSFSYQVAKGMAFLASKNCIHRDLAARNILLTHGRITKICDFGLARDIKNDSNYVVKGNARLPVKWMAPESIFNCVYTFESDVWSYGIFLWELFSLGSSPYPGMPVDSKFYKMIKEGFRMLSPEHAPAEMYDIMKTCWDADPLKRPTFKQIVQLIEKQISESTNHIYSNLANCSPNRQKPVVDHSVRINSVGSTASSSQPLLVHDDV

[8] = target: T3, Receptor-interacting serine/threonine-protein kinase 4 (Homo sapiens) (UniProt P57078); experiment: Inhibition of RIPK4 (unknown origin) assessed as residual activity at 1000 nM by KINOMEscan analysis relative to control
T3 sequence (whole entry): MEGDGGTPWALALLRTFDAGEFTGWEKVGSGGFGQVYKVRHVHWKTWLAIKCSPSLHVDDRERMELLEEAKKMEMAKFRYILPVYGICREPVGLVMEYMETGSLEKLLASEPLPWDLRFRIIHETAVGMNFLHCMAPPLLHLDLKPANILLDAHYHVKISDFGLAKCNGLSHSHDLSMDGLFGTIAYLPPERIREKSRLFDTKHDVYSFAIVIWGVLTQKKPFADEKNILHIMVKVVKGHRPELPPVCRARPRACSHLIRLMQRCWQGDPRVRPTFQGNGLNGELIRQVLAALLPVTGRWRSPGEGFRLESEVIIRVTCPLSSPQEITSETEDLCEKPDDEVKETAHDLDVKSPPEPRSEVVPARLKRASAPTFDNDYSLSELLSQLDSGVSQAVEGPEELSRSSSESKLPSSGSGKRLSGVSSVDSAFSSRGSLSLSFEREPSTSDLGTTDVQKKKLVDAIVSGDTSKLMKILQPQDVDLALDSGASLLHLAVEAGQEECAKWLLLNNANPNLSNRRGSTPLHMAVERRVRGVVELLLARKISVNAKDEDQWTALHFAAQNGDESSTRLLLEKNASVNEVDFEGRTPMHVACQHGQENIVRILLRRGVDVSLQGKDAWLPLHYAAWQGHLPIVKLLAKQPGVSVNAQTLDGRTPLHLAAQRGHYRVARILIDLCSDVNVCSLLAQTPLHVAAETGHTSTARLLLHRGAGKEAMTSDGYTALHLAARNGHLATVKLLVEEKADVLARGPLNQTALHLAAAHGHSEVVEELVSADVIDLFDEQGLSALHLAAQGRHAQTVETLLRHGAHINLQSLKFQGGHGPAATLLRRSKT

[9] = target: Mast/stem cell growth factor receptor Kit (Homo sapiens) (UniProt P10721); experiment: Inhibition of KIT (unknown origin) assessed as residual activity at 1000 nM by KINOMEscan analysis relative to control
Mast/stem cell growth factor receptor Kit (Homo sapiens), sequence (P10721 whole entry): as the sequence (P10721 whole entry V559D/T670I) above, with D559V, I670T counted along it

Row | SMILES | Activity [1] [%] | Activity [2] [%] | Activity [3] [%] | Activity [4] [%] | Activity [5] [%] | Activity [6] [%] | Activity [7] [%] | Activity [8] [%] | Activity [9] [%]
1 | COc1cc2nc(C)nc(N[C@H](C)c3cccc(-c4cn[nH]c4)c3)c2cc1OC | 73 | 94 | 83 | 100 | 90 | 59 | 92 | 70 | 99
2 | COc1cc2ncnc(N[C@H](C)c3cccc4ccccc34)c2cc1OC | 82 | 92 | 84 | 100 | 89 | 81 | 73 | 93 | 100
